{
  "source": "patent US12583895B2",
  "about": "“Polypeptides for restoring endothelial function and methods of use thereof” (Vanderbilt University, priority 2019, dated 2026)",
  "key": {"[1]": {"tested_on": "human saphenous veins (HSV)", "assay": "Endothelial-dependent relaxation of human saphenous veins from CABG patients, muscle bath", "type": "cell-based", "details": "human saphenous vein; for endothelial function (percent relaxation to carbachol) in HSV / relaxation responses normalized to baseline relaxation in HSV: 1 hour; for relaxation responses normalized to baseline relaxation in HSV: mean±SD", "method": "Human saphenous veins (HSV) were collected from patients undergoing coronary artery bypass grafting procedures and treated with NiPp (500 μM) for 1 hour at room temperature. PE-precontracted tissues were treated with carbachol (CCH; 10^−8 to 10^−5M). Percent relaxation was determined as a change to the maximal PE-induced contraction. Data are reported as mean responses±standard deviation. n=2. Baseline endothelial function in HSV was low.\nPE-precontracted tissues were treated with carbachol (CCH; 10^−8 to 10^−5M). Percent relaxation were determined as a change to the maximal PE-induced contraction. Data are reported as mean responses±standard deviation. n=10. […] When normalized to baseline relaxation, NiPp led to 255±321.5% in relaxation responses in HSV.\nHSV were suspended in the muscle bath, contracted with PE and treated with carbachol (CCH; 10^−8 to 10^−5 M). The percent relaxation was determined as a change to the maximal PE-induced contraction. Percent relaxation to 5×10^−6 M CCH is shown. n=10; *p<0.05 in paired t-test. […] Data are expressed as mean±SD.\nHuman saphenous veins (HSV) was obtained under approval from the Institutional Review Board of Vanderbilt University Medical Center from consented patients undergoing coronary artery bypass grafting procedures. HSV segments were collected immediately following surgical harvest and transported to the laboratory in PL for immediate experimentation.\nMeasurement of endothelial-dependent relaxation. Rings of HSV or RA (1-2 mm) were suspended in a muscle bath containing a bicarbonate buffer (120 mM sodium chloride, 4.7 mM potassium chloride, 1.0 mM magnesium sulfate, 1.0 mM monosodium phosphate, 10 mM glucose, 1.5 mM calcium chloride, and 25 mM sodium bicarbonate, pH 7.4) equilibrated with 95% O2/5% CO2 at 37° C. for 1 h at a resting tension of 1 g, manually stretched to three times the resting tension, and maintained at resting tension for an additional 1 h.\nThis produced the maximal force tension relationship as previously described. After equilibration, the rings were primed with 110 mM potassium chloride (with equimolar replacement of sodium chloride in bicarbonate buffer) to determine functional viability. Viable rings were then tested for contractile response to a dose of phenylephrine (PE) to yield submaximal contraction (approximately 60-70% of maximum KCl; 5×10^−6 M for HSV and 1-5×10^−7 M for RA) and relaxed with carbachol (CCH, 5×10^−7 M), an acetylcholine analogue, to determine endothelial-dependent relaxation responses. Force measurements were obtained using the Radnoti force transducer (model 159901A, Radnoti LLC, Monrovia, CA) interfaced with a PowerLab data acquisition system and LabChart software (AD Instruments Inc., Colorado Springs, CO). Contractile responses were defined by stress, calculated using force generated by tissues as follows: stress (×10^5 N/m^2)=force (g)×0.0987/area, where area=wet weight (mg)/at maximal length (mm)]/1.055.\nRelaxation was calculated as percent change in stress compared to the maximal PE-induced contraction (set as 100%). Each data point was averaged from at least two rings from the same specimen. To determine concurrent signaling events, tissues were frozen in liquid nitrogen at relevant timepoints.\nThis study illustrates that the NiPp polypeptide (SEQ ID NO:1) restores endothelial function in aged human saphenous veins. […]"}, "rat aorta": {"tested_on": "rat aorta", "assay": "Endothelial-dependent relaxation of rat aorta after acidosis (normal saline) injury", "type": "cell-based", "details": "NiPp 500 μM 30 min pretreatment in PL, then NS with NiPp 500 μM 2 h", "method": "Freshly isolated rat aorta (RA) was cut into rings and then pretreated in the absence or presence of NiPp (500 μM) in PL for 30 min. Tissue rings were then transferred to normal saline (NS) to induce injury in the absence or presence of NiPp (500 μM) and continued incubation for 2 h at room temperature. After treatments, RA were suspended in the muscle bath, contracted with PE and then treated with escalating doses of carbachol (CCH; 10^−8 to 10^−5 M). The percent relaxation was determined as a change to the maximal PE-induced contraction. n=5-7 rats. *p<0.05 in two-way ANOVA with Tukey post-test. NiPp restores NS-induced endothelial dysfunction in RA.\nTissue rings were then transferred to NS and continued incubation in the absence or presence of NiPp (500 μM) for 2 h at room temperature. Control rings (Ctrl) were incubated in PL for 2.5 h. […] The percent relaxation was determined as a change to the maximal PE-induced contraction. […] Data are expressed as mean±SD. […]\nThis produced the maximal force tension relationship as previously described. […] Contractile responses were defined by stress, calculated using force generated by tissues as follows: stress (×10^5 N/m^2)=force (g)×0.0987/area, where area=wet weight (mg)/at maximal length (mm)]/1.055.\nRelaxation was calculated as percent change in stress compared to the maximal PE-induced contraction (set as 100%). […]"}},
  "note": "Entries after “also recorded” stand apart in the source; their conditions may differ. Non-standard residues stand in square brackets, D forms with d. No end group written: not given here. pS = N[C@@H](COP(=O)(O)O)C(=O)O",
  "data": [
    {"substance": "YARAAARQARASPAARRA(pS)AILPG (YARAAARQARASPAARRA[pS]AILPG) [NiPp, Cell-permeant phosphopeptide mimetic of Niban: transduction domain … conjugated to the region surrounding serine 602 of Niban]", "values": [
      {"measurement": "endothelial-dependent relaxation in HSV (percent relaxation to 5×10^−6 M CCH)", "setting": "[1]; NiPp 100 μM in PL, 2 h, room temperature, n=10", "value": "improves; also recorded: improvement"},
      {"measurement": "endothelial function (percent relaxation to carbachol) in HSV", "setting": "[1]; NiPp 100 μM, room temperature, n=10", "value": "increased endothelial function"},
      {"measurement": "relaxation responses normalized to baseline relaxation in HSV", "setting": "[1]; NiPp 100 μM, n=10", "value": "255±321.5", "unit": "%"},
      {"measurement": "endothelial function (percent relaxation to carbachol) in HSV", "setting": "[1]; NiPp 500 μM, room temperature, n=2", "value": "increased endothelial function"},
      {"measurement": "relaxation responses normalized to baseline relaxation in HSV", "setting": "[1]; NiPp 500 μM, n=2", "value": "183±24", "unit": "%"},
      {"measurement": "endothelial function (percent relaxation to carbachol) after acidosis (normal saline) injury", "setting": "rat aorta", "value": "improved; also recorded: restores"}
    ]}
  ]
}
